Assay results from patent US20130287807A1, “COMPOUNDS FOR TREATING SYMPTOMS ASSOCIATED WITH PARKINSON'S DISEASE” (priority 2008, published 2013).
“Also recorded” adds a separate entry of the source.

Columns and labels:
[1] = test system: full length Aβ and/or fragments thereof; assay: Immune response elicited by using AD mimotopes: detection of Aβ; assay type: in vivo; design: key: +: All peptides listed in table 1 mount specific immune reactions against full length Aβ and/or fragments thereof
Description: In the following Table further examples of the immune response elicited by using AD mimotopes are described. All peptides listed in table 1 mount specific immune reactions against full length Aβ and/or fragments thereof.

[2] = test system: monoclonal antibody (DAEFRH-peptide-specific); assay: Inhibition assay (ELISA): mimotope peptides compete with plate-bound original epitope DAEFRH for recognition by the monoclonal antibody; assay type: binding, Mice; conditions: for Inhibitory capacity of mimotopes: summary Tables 1 and 2 (Examples 2, 3); for inhibition of binding of the monoclonal antibody to the original epitope: text to FIGS. 2-9
Description: Mice are vaccinated with the 6mer peptide DAEFRH (natural N-terminal Aβ42 sequence) linked to the protein bovine serum albumin BSA (to make use of the hapten-carrier-effect), emulsified in CFA (first injection) and IFA (booster injections). DAEFRH-peptide-specific, antibody-producing hybridomas are detected by ELISA (DAEFRH-peptide-coated ELISA plates).
FIGS. 2 and 3 describe the results of inhibition assays performed with mimotope peptides included in and obtained from the 5 libraries (as described in WO 2004/062556). The mimotope peptides compete with the original epitope for recognition by the monoclonal antibody. Original epitope and mimotope peptides contain an additional C at the C-terminus for coupling to a protein carrier (if desired).
(§1) After blocking with PBS/BSA 1% (200 μl/well, 12 h, 4° C.), the plates are washed 3× times with PBS/Tween. Then, biotinylated monoclonal antibody (1:2000, 50 μl/well) and peptides (50 μl/well) at 50, 5, 0.5, 0.05, 0.005, and 0.0005 μg/ml are added for 20 min. at 37° C. The plates are washed 3× times with PBS/Tween and are incubated with horseradish peroxidase (HRP)-labeled streptavidin (100 μl/well, 30 min, RT). The plates are washed 5× times with PBS/Tween and are incubated with ABTS+H2O2(0.1% w/v, 10 to 45 min) and the reaction is stopped with citric acid followed by photometric evaluation (wavelength 405 nm).
as §1, with “different concentrations” for “50, 5, 0.5, 0.05, 0.005, and 0.0005 μg/ml”, “ABTS+H2O2 (0.1%” for “ABTS+H2O2(0.1%”
as §1, with “different concentrations” for “50, 5, 0.5, 0.05, 0.005, and 0.0005 μg/ml”

[3] = test system: monoclonal antibody MV-003; assay: In vitro binding assay (ELISA), BSA-coupled peptides, parental antibody MV-003; design: species or system BalbC mice; conditions: Table 1A; peptide-BSA on plate, compared to original epitope
Procedure: Peptides derived from Phage Display as well as variants thereof were coupled to BSA and bound to ELISA plates (1 μM; as indicated in the respective figures) and subsequently incubated with the monoclonal antibody that was used for the screening procedure to analyse binding capacity of identified peptides.
Legend to Table 1A: the binding capacity is coded by the following binding code: 1:X describes the dilution factor of the parental AB.

[4] = test system: monoclonal antibody MV-003; assay: In vitro inhibition assay (ELISA), MV-003 binding to original epitope; design: species or system BalbC mice; conditions: Table 2A; OD at 10 ug peptide compared to original peptide
Procedure: Different amounts of peptides (concentrations ranging from 10 μg to 0.08 μg; serial dilutions; for MV-002: concentrations ranging from 5 μg to 0.03 μg; serial dilutions), derived from Phage Display were incubated with the monoclonal antibody that was used for the screening procedure. Peptides diminishing subsequent binding of the antibody to the original epitope coated on ELISA plates were considered as inhibiting in this assay.
Legend to Table 2A: the inhibition capacity is coded by the following code: Weak inhibition means more peptide is required to lower AB binding than with the original epitope; strong inhibition means similar peptide amounts are required for mimotope and original epitope for lowering AB binding. Mimotopes are compared to the original peptide as standard. OD at 10 ug peptide used in the assay is used to calculate the competition capacity compared to original peptide.

irrelevant peptide p1454 = assay: Mimotope vaccination, serum titer ELISA against irrelevant peptide; assay type: in vivo, C57/B16 mice; conditions: 30 μg peptide-KLH s.c. with alum
Procedure: (§2) Inhibiting as well as non-inhibiting peptides were coupled to KLH and injected into mice (wildtype C57/B16 mice; subcutaneous injection into the flank) together with an appropriate adjuvant (aluminium hydroxide). Animals were vaccinated 3-6 times in biweekly intervals and sera were taken biweekly as well. Titers to injected peptides, as well as to an irrelevant peptide were determined with every serum. Furthermore, titers against the recombinant human Aβ protein, and against original peptides were determined respectively. In general sera were analysed by reaction against peptides coupled to Bovine Serum Albumin (BSA) and recombinant full length proteins which were immobilised on ELISA plates. Titers were determined using anti mouse IgG specific antibodies. For detailed results see FIGS. 15, 16 and 17 respectively and FIGS. 23, 24 and 25 respectively.
(§3) Female C57/b16 mice, 5-6 mice per group, were subcutaneously immunized with 30 μg peptide coupled to KLH. Control groups were administered original epitope-KLH conjugates respectively. As adjuvant alum was used (always 1 mg per mouse). […] The in vitro ELISA assay to determine the antibody titer was performed with sera of single mice after each vaccination in a two week interval (see FIGS. 15 and 16 respectively). The wells of the ELISA plate were coated with mimotope-BSA conjugate and an irrelevant peptide-BSA conjugate (negative control). The positive control was performed by reaction of the parental antibody with the respective mimotope-BSA conjugate. The detection was performed with anti-mouse IgG. Additionally, recombinant proteins were immobilised on ELISA plates and sera reacted accordingly. FIGS. 15 to 17 show representative examples for assays used to characterise mimotopes in vivo.
as §3, with “FIGS. 25” for “FIGS. 15”, “and 26” for “and 16”, “respectively). Titers were calculated as OD max/2 in all figures shown.” for “respectively).”, “FIGS. 23, 24 and 25” for “FIGS. 15 to 17”

p4377 = assay: Mimotope vaccination, serum ELISA against p4377; assay type: in vivo, C57/B16 mice; conditions: peptide-KLH vaccines with alum; FIG. 24
Procedure: as §2
as §3, with “FIGS. 25” for “FIGS. 15”, “and 26” for “and 16”, “respectively). Titers were calculated as OD max/2 in all figures shown.” for “respectively).”, “FIGS. 23, 24 and 25” for “FIGS. 15 to 17”

[5] = test system: monoclonal antibody MV-002; assay: In vitro inhibition assay (ELISA), MV-002 binding to original epitope; design: species or system C57/B16 mice; conditions: for inhibition of binding of monoclonal antibody in in vitro competition experiments: MV-002 mimotopes
[6] = test system: injected peptide (mimotope-BSA conjugate); assay: Mimotope vaccination, serum titer ELISA against injected peptide; assay type: in vivo, C57/B16 mice; conditions: 30 μg peptide-KLH s.c. with alum, anti-mouse IgG
Procedure: as §2, §3
as §3, with “FIGS. 25” for “FIGS. 15”, “and 26” for “and 16”, “respectively). Titers were calculated as OD max/2 in all figures shown.” for “respectively).”, “FIGS. 23, 24 and 25” for “FIGS. 15 to 17”

[7] = test system: Aβ/truncated/modified forms; assay: In vivo characterisation of mimotopes: detection of Aβ/truncated/modified forms; design: species or system C57/B16 mice; key: +: All peptides listed in table 4 mount specific immune reactions against full length and/or truncated and modified forms of Aβ or fragments thereof; conditions: Table 4, MV-002 derived mimotopes
Procedure: as §2, §3
as §3, with “FIGS. 25” for “FIGS. 15”, “and 26” for “and 16”, “respectively). Titers were calculated as OD max/2 in all figures shown.” for “respectively).”, “FIGS. 23, 24 and 25” for “FIGS. 15 to 17”

[8] = test system: monoclonal antibody MV-002; assay: In vitro binding assay (ELISA), BSA-coupled peptides, parental antibody MV-002; design: species or system C57/B16 mice; conditions: Table 1 (MV-002); peptide-BSA on plate, compared to original epitope
How it was run: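 BSA-conjugated phage-display peptides and variants coated on ELISA plates at 1 μM, then incubated with the monoclonal antibody used for the screen. Binding capacity given as 1:X, the dilution factor of the parental antibody; Ac- marks acetylated amino acids.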

[9] = competition ELISA, plate-bound DAEFRH-C-BSA

With `CC(C)C[C@H](NC(=O)[C@@H](N)CCC(=O)O)C(=O)N[C@@H](CCC(=O)O)C(=O)N[C@@H](Cc1ccccc1)C(=O)N[C@@H](CCCNC(=N)N)C(=O)NCC(=O)N[C@@H](CS)C(=O)O` [Peptide 3008, ELEFRG] the “Detection of Aβ” value [1] was “+” and the “Inhibitory capacity of mimotopes” value [2] was “weak”.

With `N=C(N)NCCC[C@H](NC(=O)[C@H](Cc1ccccc1)NC(=O)[C@H](CCC(=O)O)NC(=O)[C@H](Cc1ccc(O)cc1)NC(=O)[C@@H](N)CC(=O)O)C(=O)NCC(=O)N[C@@H](CS)C(=O)O` [Peptide 3007, DYEFRG] the “Detection of Aβ” value [1] was “+”, the “inhibition of binding of the monoclonal antibody to the original epitope” value (shortened to “inhibition of binding … to the original epitope”) [2, 9] was “block epitope recognition” and the “Inhibitory capacity of mimotopes” value [2] was “strong”.

In the case of IRWDGGC [p4793], the “Binding Capacity” value [3] is reported as 2 (medium binding :16-60000) and the “Inhibition Capacity” value [4] is reported as 1 (Weaker than original epitope (OD of 10 ug peptide below 12 times of original peptide)).

`C[C@H](NC(=O)[C@@H](N)Cc1ccc(O)cc1)C(=O)N[C@@H](CCC(=O)O)C(=O)N[C@@H](Cc1ccccc1)C(=O)N[C@@H](CCCNC(=N)N)C(=O)NCC(=O)N[C@@H](CS)C(=O)O` [Peptide 3005, YAEFRG] was tested, and the “Detection of Aβ” value [1] was “+”, the “inhibition of binding … to the original epitope” value [2, 9] was “block epitope recognition” and the “Inhibitory capacity of mimotopes” value [2] was “intermediate”.

With GREFRN (GREFRNC) [Peptide 4003] the “Detection of Aβ” value [1] was “+”, the “inhibition of binding … to the original epitope” value [2, 9] was “block epitope recognition; also recorded: only inhibitory at a relatively high concentration (10 μg/ml)” and the “Inhibitory capacity of mimotopes” value [2] was “weak”.

For `N=C(N)NCCC[C@H](NC(=O)[C@H](Cc1ccccc1)NC(=O)[C@H](CCC(=O)O)NC(=O)[C@H](Cc1ccc(O)cc1)NC(=O)[C@@H](N)CCC(=O)O)C(=O)NCC(=O)N[C@@H](CS)C(=O)O` [Peptide 1239, EYEFRG], the “Detection of Aβ” value [1] was “+”, the “IC50 (inhibition of monoclonal antibody recognition of DAEFRH)” value ([2]; competition ELISA, plate-bound DAEFRH-C-BSA, biotinylated mAb 1:2000) was “more than 0.5 μg/ml” and the “inhibition of binding … to the original epitope” value [2, 9] was “block epitope recognition”. The “Inhibitory capacity of mimotopes” value [2] was “intermediate”.

In the case of `C[C@H](NC(=O)[C@@H](N)CCC(=O)O)C(=O)N[C@@H](CCC(=O)O)C(=O)N[C@@H](Cc1ccccc1)C(=O)N[C@@H](CCCNC(=N)N)C(=O)NCC(=O)N[C@@H](CS)C(=O)O` [Peptide 3006, EAEFRG], the “Detection of Aβ” value [1] is reported as “+”, the “inhibition of binding … to the original epitope” value [2, 9] is reported as “block epitope recognition” and the “Inhibitory capacity of mimotopes” value [2] is reported as “strong”.

IRWDTSLC [p4728] was tested, and the “Binding Capacity” value [3] was 3 (strong binding :>60000) and the “Inhibition Capacity” value [4] was 2 (strong inhibition (as original epitope; OD of 10 ug peptide below 5 times of original peptide)).

In the case of SHTRLYFC [p4403], the “immune response against unrelated sequence (p1454)” value (irrelevant peptide p1454) is reported as “failed to induce a relevant unspecific immune response”, the “immune response against original epitope p4377” value (p4377) is reported as “mounted detectable immune responses” and the “inhibition of binding of monoclonal antibody in in vitro competition experiments” value [5] is reported as “without inhibition capacity”. The “immune response against injected peptide” value [6] was “elicited immune responses”, the “Detection of Aβ/truncated/modified forms” value [7] was “+” and the “Binding Capacity” value [8] was 1 (weak binding :<40000).

With IRWDQPC [p4756] the “Binding Capacity” value [3] was 3 (strong binding :>60000) and the “Inhibition Capacity” value [4] was 1 (Weaker than original epitope (OD of 10 ug peptide below 12 times of original peptide)).

In the case of HMRLFFNC [p4670], the “immune response against unrelated sequence (p1454)” value (irrelevant peptide p1454) is reported as “failed to induce a relevant unspecific immune response”, the “immune response against original epitope p4377” value (p4377) is reported as “mounted detectable immune responses” and the “inhibition of binding of monoclonal antibody in in vitro competition experiments” value [5] is reported as “active in in vitro inhibition assays”. For the same compound, the “Inhibition Capacity” value ([5]; Table 2 (MV-002), OD at 5 ug peptide compared to original peptide) was 1 (Weaker than original epitope (OD of peptide below 4, 6 times of original peptide)), the “immune response against injected peptide” value [6] was “elicited immune responses” and the “Detection of Aβ/truncated/modified forms” value [7] was “+”. For the same compound, the “Binding Capacity” value [8] was 3 (strong binding :>320000).
